Laboratory results as given in patent US8163793B2, “Proline derivatives” (Hoffman-La Roche Inc., priority 2009, dated 2012).
Structures can show the parent of a compound that is named as a salt.

Legend:
Cathepsin S = Cathepsin S (UniProt P25774); test: Cathepsin enzyme inhibition assay (fluorogenic peptide substrate Z-Val-Val-Arg-AMC), Cathepsin S; format: biochemical, human and mouse; conditions: enzyme 1 nM, substrate 20 μM, pH 6.5; read-out: CatS IC50
Experimental: (§1) Cathepsin Enzyme Inhibition Assay
(§2) Enzyme activity is measured by observing the increase in fluorescence intensity caused by cleavage of a peptide substrate containing a fluorophore whose emission is quenched in the intact peptide.
(§3) Assay buffer: 100 mM potassium phosphate pH 6.5, EDTA-Na 5 mM, Triton X-100 0.001%, DDT 5 mM.
(§4) Enzymes (all at 1 nM): human and mouse Cathepsin S, Cat K, Cat B, Cat L Substrate (20 μM): Z-Val-Val-Arg-AMC, except for Cat K which uses Z-Leu-Arg-AMC (both from Bachem).
(§5) AMC=7-Amino-4-Methyl-Coumarin.
Enzyme is added to the substance dilutions in 96-well microtitre plates and the reaction is started with substrate. […] IC50 are calculated by standard methods. The results are expressed in μM in the following table.

Cat L = Cat L (UniProt P07711); test: Cathepsin enzyme inhibition assay (fluorogenic peptide substrate Z-Val-Val-Arg-AMC), Cathepsin L; format: biochemical, human and mouse; conditions: enzyme 1 nM, substrate 20 μM, pH 6.5; read-out: CatL IC50
Experimental: as §1, §2, §3, §4, §5
Excitation 360 nm, Emission 465 nm.
Enzyme is added to the substance dilutions in 96-well microtitre plates and the reaction is started with substrate. Fluorescence emission is measured over 20 minutes, during which time a linear increase is observed in the absence of inhibitor. IC50 are calculated by standard methods. The results are expressed in μM in the following table.

Structure (SMILES)	IC50 (Cathepsin S)	IC50 (Cat L)
N#CC1(NC(=O)C2C[C@@H](S(=O)(=O)c3ccc(OCC(F)(F)F)cc3Cl)CN2C(=O)C2(c3ccc(Cl)nc3)CC2)CC1 (stereo in doubt) [Example 377, (R)-1-[1-(6-Chloro-pyridin-3-yl)-cyclopropanecarbonyl]-4-[2-chloro-4-(2,2,2-trifluoro-ethoxy)-benzenesulfonyl]-pyrrolidine-2-carboxylic acid (1-cyano-cyclopropyl)-amide]	0.24 nM	0.293 µM
CC(C)(C)OC(=O)N1C[C@H](S(=O)(=O)c2ccccc2CO)C[C@H]1C(=O)NC1(C#N)CC1 [Example 1, (2S,4R)-2-(1-Cyano-cyclopropylcarbamoyl)-4-(2-hydroxymethyl-benzenesulfonyl)-pyrrolidine-1-carboxylic acid tert-butyl ester]	15 nM	≥ 25 µM
CC(C)(C)OC(=O)N1C[C@H](S(=O)(=O)c2ccccc2OC(F)(F)F)C[C@H]1C(=O)NC1(C#N)CC1 [Example 2, (2S,4R)-2-(1-Cyano-cyclopropylcarbamoyl)-4-(2-trifluoromethoxy-benzenesulfonyl)-pyrrolidine-1-carboxylic acid tert-butyl ester]	43.5 nM	≥ 25 µM
CC(C)(C)OC(=O)N1C[C@H](S(=O)(=O)c2ccc(-n3ccnc3)cc2)C[C@H]1C(=O)NC1(C#N)CC1 [Example 3, (2S,4R)-2-(1-Cyano-cyclopropylcarbamoyl)-4-(4-imidazol-1-yl-benzenesulfonyl)-pyrrolidine-1-carboxylic acid tert-butyl ester]	11 nM	≥ 25 µM
CC(C)(C)OC(=O)N1C[C@H](S(=O)(=O)c2ccc(Cl)cc2Cl)C[C@H]1C(=O)NC1(C#N)CC1 [Example 4, (2S,4R)-2-(1-Cyano-cyclopropylcarbamoyl)-4-(2,4-dichloro-benzenesulfonyl)-pyrrolidine-1-carboxylic acid-tert-butyl ester]	5.2 nM	16.5 µM
CC(C)(C)OC(=O)N1C[C@H](S(=O)(=O)c2c(Cl)cccc2Cl)C[C@H]1C(=O)NC1(C#N)CC1 [Example 5, (2S,4R)-2-(1-Cyano-cyclopropylcarbamoyl)-4-(2,6-dichloro-benzenesulfonyl)-pyrrolidine-1-carboxylic acid tert-butyl ester]	0.8 nM	9.77 µM
CC(C)(C)OC(=O)N1C[C@H](S(=O)(=O)c2ccc(F)cc2F)C[C@H]1C(=O)NC1(C#N)CC1 [Example 6, (2S,4R)-2-(1-Cyano-cyclopropylcarbamoyl)-4-(2,4-difluoro-benzenesulfonyl)-pyrrolidine-1-carboxylic acid tert-butyl ester]	38.5 nM	≥ 25 µM
CC(C)(C)OC(=O)N1C[C@H](S(=O)(=O)c2ccc(Br)cc2C(F)(F)F)C[C@H]1C(=O)NC1(C#N)CC1 [Example 7, (2S,4R)-4-(4-Bromo-2-trifluoromethyl-benzenesulfonyl)-2-(1-cyano-cyclopropylcarbamoyl)-pyrrolidine-1-carboxylic acid tert-butyl ester]	2.7 nM	≥ 25 µM
CN1CCN(c2ccc(S(=O)(=O)[C@@H]3C[C@@H](C(=O)NC4(C#N)CC4)N(C(=O)OC(C)(C)C)C3)c(C(F)(F)F)c2)CC1 [Example 8, (2S,4R)-2-(1-Cyano-cyclopropylcarbamoyl)-4-[4-(4-methyl-piperazin-1-yl)-2-trifluoromethyl-benzenesulfonyl]-pyrrolidine-1-carboxylic acid tert-butyl ester]	0.7 nM	≥ 25 µM
CC(C)(C)OC(=O)N1C[C@H](S(=O)(=O)c2ccc(-n3cnc4ccccc43)cc2C(F)(F)F)C[C@H]1C(=O)NC1(C#N)CC1 [Example 9, (2S,4R)-4-(4-Benzoimidazol-1-yl-2-trifluoromethyl-benzenesulfonyl)-2-(1-cyano-cyclopropylcarbamoyl)-pyrrolidine-1-carboxylic acid tert-butyl ester]	0.6 nM	≥ 25 µM
Cc1ccc(=O)n(-c2ccc(S(=O)(=O)[C@@H]3C[C@@H](C(=O)NC4(C#N)CC4)N(C(=O)OC(C)(C)C)C3)c(C(F)(F)F)c2)n1 [Example 10, (2S,4R)-2-(1-Cyano-cyclopropylcarbamoyl)-4-[4-(3-methyl-6-oxo-6H-pyridazin-1-yl)-2-trifluoromethyl-benzenesulfonyl]-pyrrolidine-1-carboxylic acid tert-butyl ester]	0.7 nM	≥ 25 µM
CCc1ccccc1S(=O)(=O)[C@H]1CN[C@H](C(=O)NC2(C#N)CC2)C1 [Example 11, (2S,4R)-4-(2-Ethyl-benzenesulfonyl)-pyrrolidine-2-carboxylic acid (1-cyano-cyclopropyl)-amide Hydrochloride]	30 nM	≥ 25 µM
N#CC1(NC(=O)[C@@H]2C[C@@H](S(=O)(=O)c3ccccc3CO)CN2)CC1 [Example 12, (2S,4R)-4-(2-Hydroxymethyl-benzenesulfonyl)-pyrrolidine-2-carboxylic acid (1-cyano-cyclopropyl)-amide Hydrochloride]	18 nM	42.2 µM
N#CC1(NC(=O)[C@@H]2C[C@@H](S(=O)(=O)c3ccccc3OC(F)(F)F)CN2)CC1 [Example 13, (2S,4R)-4-(2-Trifluoromethoxy-benzenesulfonyl)-pyrrolidine-2-carboxylic acid (1-cyano-cyclopropyl)-amide Hydrochloride]	46.5 nM	≥ 25 µM
N#CC1(NC(=O)[C@@H]2C[C@@H](S(=O)(=O)c3ccc(-n4ccnc4)cc3)CN2)CC1 [Example 14, (2S,4R)-4-(4-Imidazol-1-yl-benzenesulfonyl)-pyrrolidine-2-carboxylic acid (1-cyano-cyclopropyl)-amide Hydrochloride]	3.2 nM	≥ 25 µM
N#CC1(NC(=O)[C@@H]2C[C@@H](S(=O)(=O)c3ccc(Cl)cc3Cl)CN2)CC1 [Example 15, (2S,4R)-4-(2,4-Dichloro-benzenesulfonyl)-pyrrolidine-2-carboxylic acid (1-cyano-cyclopropyl)-amide Hydrochloride]	4.5 nM	4.92 µM
N#CC1(NC(=O)[C@@H]2C[C@@H](S(=O)(=O)c3c(Cl)cccc3Cl)CN2)CC1 [Example 16, (2S,4R)-4-(2,6-Dichloro-benzenesulfonyl)-pyrrolidine-2-carboxylic acid (1-cyano-cyclopropyl)-amide Hydrochloride]	13.2 nM	≥ 25 µM
N#CC1(NC(=O)[C@@H]2C[C@@H](S(=O)(=O)c3ccc(F)cc3F)CN2)CC1 [Example 17, (2S,4R)-4-(2,4-Difluoro-benzenesulfonyl)-pyrrolidine-2-carboxylic acid (1-cyano-cyclopropyl)-amide Hydrochloride]	32 nM	≥ 25 µM
N#CC1(NC(=O)[C@@H]2C[C@@H](S(=O)(=O)c3ccc(Br)cc3C(F)(F)F)CN2)CC1 [Example 18, (2S,4R)-4-(4-Bromo-2-trifluoromethyl-benzenesulfonyl)-pyrrolidine-2-carboxylic acid (1-cyano-cyclopropyl)-amide hydrochloride]	3.3 nM	30.3 µM
N#CC1(NC(=O)[C@@H]2C[C@@H](S(=O)(=O)c3ccc(-n4cccn4)cc3C(F)(F)F)CN2)CC1 [Example 19, (2S,4R)-4-(4-Pyrazol-1-yl-2-trifluoromethyl-benzenesulfonyl)-pyrrolidine-2-carboxylic acid (1-cyano-cyclopropyl)-amide hydrochloride]	1.3 nM	≥ 25 µM
N#CC1(NC(=O)[C@@H]2C[C@@H](S(=O)(=O)c3ccc(-n4ccnc4)cc3C(F)(F)F)CN2)CC1 [Example 20, (2S,4R)-4-(4-Imidazol-1-yl-2-trifluoromethyl-benzenesulfonyl)-pyrrolidine-2-carboxylic acid (1-cyano-cyclopropyl)-amide hydrochloride]	1 nM	≥ 25 µM
CN1CCN(c2ccc(S(=O)(=O)[C@H]3CN[C@H](C(=O)NC4(C#N)CC4)C3)c(C(F)(F)F)c2)CC1 [Example 21, (2S,4R)-4-[4-(4-Methyl-piperazin-1-yl)-2-trifluoromethyl-benzenesulfonyl]-pyrrolidine-2-carboxylic acid (1-cyano-cyclopropyl)-amide hydrochloride]	0.8 nM	40.8 µM
N#CC1(NC(=O)[C@@H]2C[C@@H](S(=O)(=O)c3ccc(-n4cnc5ccccc54)cc3C(F)(F)F)CN2)CC1 [Example 22, (2S,4R)-4-(4-Benzoimidazol-1-yl-2-trifluoromethyl-benzenesulfonyl)-pyrrolidine-2-carboxylic Acid (1-cyano-cyclopropyl)-amide hydrochloride]	0.5 nM	≥ 25 µM
N#CC1(NC(=O)[C@H]2C[C@@H](S(=O)(=O)c3ccccc3C(F)(F)F)CN2c2ncccc2C(F)(F)F)CC1 [Example 187, (2R,4R)-4-(2-Trifluoromethyl-benzenesulfonyl)-1-(3-trifluoromethyl-pyridin-2-yl)-pyrrolidine-2-carboxylic acid (1-cyano-cyclopropyl)-amide]	–	≥ 25 µM
N#CC1(NC(=O)[C@@H]2C[C@@H](S(=O)(=O)c3ccccc3C(F)(F)F)CN2c2ncccn2)CC1 [Example 408, (2S,4R)-1-Pyrimidin-2-yl-4-(2-trifluoromethyl-benzenesulfonyl)-pyrrolidine-2-carboxylic acid (1-cyano-cyclopropyl)-amide]	–	≥ 25 µM
